Among the data in patent publication US12398097B2, “WDR5-MYC inhibitors” (Vanderbilt University, priority 2019, dated 2025) are Ki values, retold here.

The test concerns the target WDR5 (Homo sapiens, UniProt P61964). The experiment in a line: Competition-based fluorescence polarization anisotropy assay. The note with it: binding to WDR5; displacement of FITC-labeled small molecule probe (analogous to Example J2 or HCH-25) or peptide probe FITC-AHx-SEEEIDVVSV; pH 6.0; Ki converted from IC50. Put shortly:
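Competition fluorescence polarization anisotropy binding to WDR5 using a FITC-labeled peptide probe or a fluorescently labeled small-molecule probe. Buffer: 200 mM phosphate, 300 mM NaCl, 0.5 mM TCEP, 0.1% Chaps, pH 6.0. Displacement data were converted to Ki.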
The Ki is the equilibrium dissociation constant of an inhibitor or competing ligand from its target. High values mean a looser hold on the target, low ones a stronger hold on the target. In the case of `C[C@H](NC(=O)c1cc(OC(F)(F)F)cc(NS(=O)(=O)c2cc(Br)ccc2O)c1O)C(N)=O` (stereo in doubt) [HCH-48, N-(1-Amino-1-oxopropan-2-yl)-3-((5-bromo-2-hydroxyphenyl)sulfonamido)-2-hydroxy-5-(trifluoromethoxy)benzamide], affinity was put at a Ki of 250 nM.
In the case of `O=C(O)c1cc(C2CC2)cc(NS(=O)(=O)c2cc(Br)cc3cccnc23)c1F` [Example J113, 3-((6-Bromoquinoline)-8-sulfonamido)-5-cyclopropyl-2-fluorobenzoic acid], the Ki was 1710 nM. This Ki lies about 6.8-fold higher than the previous one.
For `O=[N+]([O-])c1cc(Cl)cc(NS(=O)(=O)c2cc(Br)ccc2O)c1O` [NE6, 5-Bromo-N-(5-chloro-2-hydroxy-3-nitrophenyl)-2-hydroxybenzenesulfonamide] the value was 12400 nM; for `COc1ccc(Br)cc1S(=O)(=O)Nc1cc(Cl)cc(C(=O)O)c1O` [Example J2, 3-((5-Bromo-2-methoxyphenyl)sulfonamido)-5-chloro-2-hydroxybenzoic acid], 180 nM; for `O=C(O)c1cc(F)cc(NS(=O)(=O)c2cc(Br)ccc2O)c1O` [Example J107, 3-((5-Bromo-2-hydroxyphenyl)sulfonamido)-5-fluoro-2-hydroxybenzoic acid], 1480 nM.
The same measure for `N#CC1(c2cc(NS(=O)(=O)c3cc(Br)ccc3O)c(O)c(C(=O)O)c2)CCC1` [Example J203, 3-((5-Bromo-2-hydroxyphenyl)sulfonamido)-5-(1-cyanocyclobutyl)-2-hydroxybenzoic acid]: 40 nM.
For `O=S(=O)(Nc1cc(C2CC2)cc(S(=O)(=O)C2CCCO2)c1)c1cc(Br)ccc1O` (stereo not drawn) [Example S15-2] the value was 8620 nM.
Turning to `CNC(=O)c1cc(NS(=O)(=O)c2cc(Br)cc(Cl)c2O)cc(C2CC2)c1F` [Example J151, 5-((5-Bromo-3-chloro-2-hydroxyphenyl)sulfonamido)-3-cyclopropyl-2-fluoro-N-methylbenzamide], the inhibitory constant (Ki) was 210 nM.
The same measure for `O=C(NCCN1CCOCC1)c1cc(NS(=O)(=O)c2cc(Br)ccc2O)cc(C2CC2)c1F` [Example J137, 5-((5-Bromo-2-hydroxyphenyl)sulfonamido)-3-cyclopropyl-2-fluoro-N-(2-morpholinoethyl)benzamide]: 2980 nM.
For `O=C(O)c1cc(C2CC2)cc(NS(=O)(=O)c2cc(Br)ccc2O)c1F` [Example J112, 3-((5-Bromo-2-hydroxyphenyl)sulfonamido)-5-cyclopropyl-2-fluorobenzoic acid], the inhibition constant (Ki) is 780 nM.
Take `CC(O)(CNC(=O)c1cc(OC(F)(F)F)cc(NS(=O)(=O)c2cc(Br)cc(Cl)c2O)c1O)C1CC1` (stereo not drawn) [HCH-51, 3-((5-Bromo-3-chloro-2-hydroxyphenyl)sulfonamido)-N-(2-cyclopropyl-2-hydroxypropyl)-2-hydroxy-5-(trifluoromethoxy)benzamide]: the affinity, expressed as Ki, was 120 nM. This Ki is about 6.5-fold lower than that of the compound before.
The same measure for `N#CC1(c2cc(NS(=O)(=O)c3cc(Br)ccc3O)c(O)c(C(=O)Nc3nc[nH]n3)c2)CCC1` [Example J227, 3-((5-Bromo-2-hydroxyphenyl)sulfonamido)-5-(1-cyanocyclobutyl)-2-hydroxy-N-(1H-1,2,4-triazol-3-yl)benzamide]: 50 nM; for `COCCN(C)C(=O)c1cc(Cl)cc(NS(=O)(=O)c2cc(Br)ccc2OC)c1O` [Example J58, 3-((5-Bromo-2-methoxyphenyl)sulfonamido)-5-chloro-2-hydroxy-N-(2-methoxyethyl)-N-methylbenzamide]: 7740 nM.
Regarding `O=C(c1cc(Cl)cc(NS(=O)(=O)c2cc(Br)ccc2O)c1O)N1CCOCC1` [Example J30, 5-Bromo-N-(5-chloro-2-hydroxy-3-(morpholine-4-carbonyl)phenyl)-2-hydroxybenzenesulfonamide], the affinity, expressed as Ki, was 2360 nM.
For `N#CC1(c2cc(NS(=O)(=O)c3cc(Br)ccc3O)c(O)c(C(=O)NCC3CCCO3)c2)CCC1` (stereo not drawn) [Example J220, 3-((5-Bromo-2-hydroxyphenyl)sulfonamido)-5-(1-cyanocyclobutyl)-2-hydroxy-N-((tetrahydrofuran-2-yl)methyl)benzamide] the value was 1030 nM; for `O=C(O)c1cc(C2CC2)cc(NS(=O)(=O)c2cc(Br)ccc2NCC2CC2)c1O` [Example J79, 3-((5-Bromo-2-((cyclopropylmethyl)amino)phenyl)sulfonamido)-5-cyclopropyl-2-hydroxybenzoic acid], 5270 nM; for `CS(=O)(=O)c1cc(C2(C#N)CCC2)cc(NS(=O)(=O)c2cc(Br)cc3cccnc23)c1O` [Example S61, 6-Bromo-N-(5-(1-cyanocyclobutyl)-2-hydroxy-3-(methylsulfonyl)phenyl)quinoline-8-sulfonamide], 190 nM.
The same measure for `O=C(NC1COC1)c1cc(C2CC2)cc(NS(=O)(=O)c2cc(Br)ccc2O)c1O` [Example J93, 3-((5-Bromo-2-hydroxyphenyl)sulfonamido)-5-cyclopropyl-2-hydroxy-N-(oxetan-3-yl)benzamide]: 540 nM; for `CCC(O)CNC(=O)c1cc(OC(F)(F)F)cc(NS(=O)(=O)c2cc(Br)cc(Cl)c2O)c1O` (stereo not drawn) [HCH-41, 3-((5-Bromo-3-chloro-2-hydroxyphenyl)sulfonamido)-2-hydroxy-N-(2-hydroxybutyl)-5-(trifluoromethoxy)benzamide]: 230 nM.
The same measure for “2-Bromo-N-(5-chloro-2-hydroxy-3-nitrophenyl)-4-ethyl-5-hydroxybenzenesulfonamide [NE3]”: 60 nM; for `NC(=O)c1cc(Cl)cc(NS(=O)(=O)c2cc(Br)cc(Cl)c2O)c1O` [HCH-25, 3-((5-Bromo-3-chloro-2-hydroxyphenyl)sulfonamido)-5-chloro-2-hydroxybenzamide]: 270 nM.
`COc1ccc(Br)cc1S(=O)(=O)Nc1cc(Cl)cc(C(=O)NC2CCOCC2)c1O` [Example J52, 3-((5-Bromo-2-methoxyphenyl)sulfonamido)-5-chloro-2-hydroxy-N-(tetrahydro-2H-pyran-4-yl)benzamide] showed a Ki of 3950 nM.
For `COc1ccc(Br)cc1S(=O)(=O)Nc1cc(Cl)cc(C(=O)N2CC(OC)C2)c1O` [Example J62, 5-Bromo-N-(5-chloro-2-hydroxy-3-(3-methoxyazetidine-1-carbonyl)phenyl)-2-methoxybenzenesulfonamide] the value was 9360 nM; for `C[C@@H](Nc1ccc(Br)cc1S(=O)(=O)Nc1cc(C2CC2)cc(C(=O)O)c1O)C1CC1` [Example J77, (R)-3-((5-Bromo-2-((1-cyclopropylethyl)amino)phenyl)sulfonamido)-5-cyclopropyl-2-hydroxybenzoic acid], 2870 nM.
`O=C(O)c1cc(C2CC2)cc(NS(=O)(=O)c2cc(Br)cc(Cl)c2O)c1O` [Example J70, 3-((5-Bromo-3-chloro-2-hydroxyphenyl)sulfonamido)-5-cyclopropyl-2-hydroxybenzoic acid] returned a Ki of 130 nM.
For `COC[C@@H]1CCCN1C(=O)c1cc(Cl)cc(NS(=O)(=O)c2cc(Br)ccc2OC)c1O` [Example J56, (S)-5-Bromo-N-(5-chloro-2-hydroxy-3-(2-(methoxymethyl)pyrrolidine-1-carbonyl)phenyl)-2-methoxybenzenesulfonamide] the value was 4640 nM; for `O=C(O)c1cc(OC(F)(F)F)cc(NS(=O)(=O)c2cc(Br)cc(OC(F)(F)F)c2O)c1O` [HCH-15, 3-((5-Bromo-2-hydroxy-3-(trifluoromethoxy)phenyl)sulfonamido)-2-hydroxy-5-(trifluoromethoxy)benzoic acid], 170 nM.
The same measure for `CNC(=O)c1cc(C2(C#N)CCC2)cc(NS(=O)(=O)c2cc(Cl)cc(Cl)c2O)c1O` [Example J216, 5-(1-Cyanocyclobutyl)-3-((3,5-dichloro-2-hydroxyphenyl)sulfonamido)-2-hydroxy-N-methylbenzamide]: 170 nM; for `NC(=O)c1c(O)c(NS(=O)(=O)c2cc(Br)ccc2O)cc(C2CC2)c1F` [Example J123, 3-((5-Bromo-2-hydroxyphenyl)sulfonamido)-5-cyclopropyl-6-fluoro-2-hydroxybenzamide]: 360 nM; for `O=C(NCCN1CCOCC1)c1cc(C2CC2)cc(NS(=O)(=O)c2cc(Br)ccc2O)c1O` [Example J84, 3-((5-Bromo-2-hydroxyphenyl)sulfonamido)-5-cyclopropyl-2-hydroxy-N-(2-morpholinoethyl)benzamide]: 1070 nM.
For `COCCN(C)C(=O)c1cc(C2CC2)cc(NS(=O)(=O)c2cc(Br)ccc2O)c1O` [Example J83, 3-((5-Bromo-2-hydroxyphenyl)sulfonamido)-5-cyclopropyl-2-hydroxy-N-(2-methoxyethyl)-N-methylbenzamide] the value was 6380 nM.
Compound `COc1ccc(Br)cc1S(=O)(=O)Nc1cc(-c2ccccc2)cc(C(=O)O)c1O` [Example J183, 5-((5-Bromo-2-methoxyphenyl)sulfonamido)-4-hydroxy-[1,1′-biphenyl]-3-carboxylic acid] gave a Ki of 2380 nM.
The same measure for `O=C(O)c1cc(S(F)(F)(F)(F)F)cc(NS(=O)(=O)c2cc(Br)ccc2O)c1O` [Example S65, 3-((5-Bromo-2-hydroxyphenyl)sulfonamido)-2-hydroxy-5-(pentafluoro-λ^6-sulfaneyl)benzoic acid]: 30 nM; for `CCN(CC)CCS(=O)(=O)c1cc(Cl)cc(NS(=O)(=O)c2cc(Br)cc3cccnc23)c1` [Example S43, 6-Bromo-N-(3-chloro-5-((2-(diethylamino)ethyl)sulfonyl)phenyl)quinoline-8-sulfonamide]: 31300 nM; for “Methyl 4-chloro-2-(N-(5-chloro-2-hydroxy-3-nitrophenyl)sulfamoyl)benzoate [NE5]”: 460 nM.
`O=C(NC1CC(O)C1)c1cc(OC(F)(F)F)cc(NS(=O)(=O)c2cc(Br)cc(Cl)c2O)c1O` (stereo not drawn) [HCH-61, 3-((5-Bromo-3-chloro-2-hydroxyphenyl)sulfonamido)-2-hydroxy-N-(3-hydroxycyclobutyl)-5-(trifluoromethoxy)benzamide] gave a Ki of 240 nM. Against the preceding compound, the Ki is about 1.9-fold lower.
